Measured values from patent EP0466944A1, “4H-3,1-BENZOXAZIN-4-ONE COMPOUND AND ELASTASE INHIBITOR COMPOSITION CONTAINING THE SAME” (TEIJIN LIMITED, priority 1990, dated 1991).

Tested on: human purulent sputum elastase
Assay: Inhibitory effect on pulmonary hemorrhage in elastase-given hamsters (hemoglobin in bronchoalveolar lavage fluid)
Assay type: in vivo, Syrian Golden Hamsters
Details: 1 mg/kg through respiratory tract 30 minutes before elastase (1 mg/kg), lavage three hours after elastase
Method: The efficacy of the compounds of the invention in vivo can be evaluated by the following procedures. In other words, a certain dose of a solution or dispersion of the compound of the invention is given through the respiratory tract, then human purulent sputum elastase is given through the respiratory tract after a certain time. The bronchoalveolar lavage were performed at a definite time after the elastase treatment and the hemoglobin is determined in the bronchoalveolar lavage fluids. The pulmonary hemorrhage is compared with that when a solution containing no compound of the present invention is given to measure the hemorrhage-inhibitory effect of the compounds of the present invention (Bonney et al., J. Cellular Biochemistry, 39, 47 - 53, (1989)).
The compounds according to the invention listed in Table 3 were dissolved or dispersed in 0.01 M phosphate-buffered physiological saline solution (pH 7.5), given to Syrian Golden Hamsters (body weight: about 100 g) 1 mg/kg through respiratory tract, then 30 minutes later, human purulent sputum elastase was given (1 mg/kg) through respiratory tract. Three hours after elastase administration, the animals were sacrificed by bleeding to open their chests and the bronchoalveolar lavage was performed with physiological saline solution. The hemoglobin in the lavage fluid was determined by the cyanmethemoglobin method. […]

SMILES: Cc1cc(NC(=O)C(Cc2ccccc2)NC(=O)OCc2ccccc2)cc2nc(NC(C)C)oc(=O)c12 (stereo not shown) [Comparative example 1]
- inhibition rate of pulmonary hemorrhage: weak
